One experiment has as its target T1, human SCD5 (Homo sapiens, UniProt Q86SK9).
T1 construct: expressed in transfected cells; host or cells: yeast strain with OLE1 deleted, plasmid-borne human SCD5 (selected in SD-Ura)
T1 sequence (Q86SK9 1-330): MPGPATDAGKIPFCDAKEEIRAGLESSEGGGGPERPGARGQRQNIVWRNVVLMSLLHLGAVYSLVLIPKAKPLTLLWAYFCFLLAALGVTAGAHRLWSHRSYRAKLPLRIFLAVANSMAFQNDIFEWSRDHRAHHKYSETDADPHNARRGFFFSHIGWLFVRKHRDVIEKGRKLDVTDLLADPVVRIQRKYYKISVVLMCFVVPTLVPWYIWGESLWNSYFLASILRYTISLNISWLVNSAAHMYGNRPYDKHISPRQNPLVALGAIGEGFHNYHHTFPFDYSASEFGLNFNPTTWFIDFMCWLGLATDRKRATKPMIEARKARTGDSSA
Briefly: Growth inhibition of yeast strain expressing human SCD5 as sole desaturase (OLE1 deleted), OD600 readout. Type of experiment: cell-based. The following applies: yeast strain expressing human SCD5 as sole desaturase; growth (OD600) after 40 h at 30° C.; read-out: SCD5 IC50.

In a further experiment the target is T2, human SCD1 (Homo sapiens, UniProt O00767).
T2 construct: expressed in transfected cells; host or cells: yeast strain with OLE1 deleted, plasmid-borne human SCD1 (selected in SD-Ura)
T2 sequence (O00767 1-359): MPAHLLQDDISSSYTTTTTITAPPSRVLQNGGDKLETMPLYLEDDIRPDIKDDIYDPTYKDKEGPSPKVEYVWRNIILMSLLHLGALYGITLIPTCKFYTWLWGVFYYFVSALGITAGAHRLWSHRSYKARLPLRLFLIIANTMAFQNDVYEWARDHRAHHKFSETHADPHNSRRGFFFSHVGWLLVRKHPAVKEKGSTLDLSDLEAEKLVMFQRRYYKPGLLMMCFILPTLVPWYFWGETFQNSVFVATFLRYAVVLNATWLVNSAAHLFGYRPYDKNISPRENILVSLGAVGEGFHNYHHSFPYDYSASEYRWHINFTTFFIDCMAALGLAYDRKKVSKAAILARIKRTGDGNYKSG
Briefly: Growth inhibition of yeast strain expressing human SCD1 as sole desaturase (OLE1 deleted), OD600 readout. Type of experiment: cell-based. Particulars: yeast strain expressing human SCD1 as sole desaturase; growth (OD600) after 40 h at 30° C.; read-out: SCD1 IC50.

On to `CN1N=C(C(=O)Nc2ccc(Cc3ccc(C#N)c(F)c3)cn2)CCC1=O` [Compound 470], for which the IC50 at human SCD5 and on human SCD1 was above 45000 nM each time.

With `CN1N=C(C(=O)Nc2cc(Cc3cccc(Cl)c3)cnc2N)CCC1=O` [Compound 471], the 50% inhibitory concentration (IC50) on human SCD5 and at human SCD1 was above 45000 nM each time.

`CC(O)C1CN(C(=O)Nc2ccc(Cc3cccc(Cl)c3)cn2)C1` (stereo not drawn) [Compound 472]: the IC50 on human SCD5 and at human SCD1 was above 45000 nM throughout.

Consider `Cn1cc(C(=O)Nc2nnc(Cc3ccc(F)cc3)s2)ccc1=O` [Compound 473], for which the concentration for half-maximal inhibition (IC50) on human SCD5 and at human SCD1 was above 45000 nM in each case.

In the case of `Cn1nc(C(=O)Nc2ccc(CC3CCCCC3)cn2)cc1O` [Compound 476], the concentration for half-maximal inhibition (IC50) was 7600 nM at human SCD5 and above 45000 nM at human SCD1.

On to `CN1N=C(C(=O)Nc2ccc(C=C3CCCCC3)cn2)CCC1=O` [Compound 477], for which the IC50 on human SCD5 was 18000 nM; at human SCD1, above 45000 nM.

As to `N#Cc1ccc(C(=O)Nc2ccc(Cc3cc(F)cc(F)c3)cn2)cn1` [Compound 478], the 50% inhibitory concentration (IC50) on human SCD5 was found to be 19 nM; on human SCD1 it was 2100 nM.

Take `COCc1ncc(C(=O)Nc2ccc(Cc3cccc(Cl)c3)cn2)cn1` [Compound 479]: the IC50 on human SCD5 stood at 680 nM; at human SCD1 it was 12000 nM.

As for `CN1CC=C(C(=O)Nc2ccc(Cc3cccc(F)c3)cn2)NC1=O` [Compound 480], the figures for the half-inhibitory concentration (IC50) at human SCD5 and at human SCD1 were 230 nM and 3500 nM, respectively.

As to `O=C(Nc1ccc(Cc2cccc(F)c2)cn1)c1cncc(CO)c1` [Compound 481], the IC50 on human SCD5 turned out to be 27 nM; on human SCD1, 120 nM.

For `N#Cc1ccc(C(=O)Nc2ccc(CNc3cccc(Cl)c3)cn2)cn1` [Compound 482], the IC50 on human SCD5 came out at 620 nM; on human SCD1, 4800 nM.

Turning to `O=C(Nc1ccc(Cc2cccc(Cl)c2)cn1)c1cncc(CO)c1` [Compound 483], the IC50 on human SCD5 worked out at 17 nM; at human SCD1, 75 nM.

In the case of `Cc1ccc(C(=O)Nc2ccc(Cc3cc(F)cc(F)c3)cn2)nn1` [Compound 484], the IC50 came out at 14 nM at human SCD5 and 530 nM at human SCD1.

For `Cc1nccc(C(=O)Nc2ccc(Cc3ccc(F)c(F)c3)cn2)n1` [Compound 485], the figures for the IC50 on human SCD5 and at human SCD1 were 21 nM and 210 nM, respectively.

With `COc1nccc(C(=O)Nc2ccc(Cc3ccc(F)c(F)c3)cn2)n1` [Compound 486], the half-inhibitory concentration (IC50) turned out to be 110 nM on human SCD5 and 7800 nM on human SCD1.

With `Cn1cc(NC(=O)c2ccc(COc3cccc(Cl)c3)cn2)ccc1=O` [Compound 487], the IC50 on human SCD5 was 310 nM; at human SCD1 it was 4600 nM.

In the case of `Cn1cc(NC(=O)c2ccc(COc3ccc(F)c(Cl)c3)cn2)ccc1=O` [Compound 488], the IC50 came out at 109 nM on human SCD5 and 5800 nM at human SCD1.

For the compound `CCn1nc(C(=O)Nc2ccc(Cc3cccc(Cl)c3)cn2)cc1O` [Compound 489], the figures for the 50% inhibitory concentration (IC50) on human SCD5 and at human SCD1 were 544 nM and above 45000 nM, respectively.

For the compound `O=C(Nc1ccc(Cc2cccc(F)c2)cn1)c1ncc(Br)cn1` [Compound 490], the half-inhibitory concentration (IC50) on human SCD5 was 2200 nM; on human SCD1, above 45000 nM.

Turning to `CC(C)(C#N)c1ccc(C(=O)Nc2ccc(Cc3cccc(Cl)c3)cn2)cn1` [Compound 491], the half-maximal inhibitory concentration (IC50) on human SCD5 turned out to be 6500 nM; at human SCD1 it was 25000 nM.

Take `N#Cc1ccc(C(=O)Nc2ccc(COc3cccc(Cl)c3)cn2)cn1` [Compound 492]: the IC50 on human SCD5 is 5800 nM; at human SCD1 it was above 45000 nM.

Take `N#Cc1ccc(C(=O)Nc2ccc(Cc3cc(F)cc(F)c3)cn2)nc1` [Compound 493]: the IC50 on human SCD5 is 43 nM; on human SCD1 it was 32000 nM.

For `O=C(Nc1ccc(Cc2cccc(Cl)c2)cn1)c1cnc(CO)nc1` [Compound 494], the IC50 at human SCD5 and on human SCD1 was 10 nM each time.

Turning to `Cn1nc(NC(=O)c2ccc(Cc3ccc(F)cc3)cn2)ccc1=O` [Compound 495], the 50% inhibitory concentration (IC50) came out at 15 nM on human SCD5 and 560 nM at human SCD1.

For `Cn1cc(NC(=O)c2ccc(Cc3ccc(F)cc3)cn2)ccc1=O` [Compound 496], the IC50 on human SCD5 was determined as 10 nM; at human SCD1, 222 nM.

Take `O=C(Nc1ccc(Cc2cccc(F)c2)cn1)c1cc(CO)ccn1` [Compound 497]: the IC50 at human SCD5 and on human SCD1 was 10 nM throughout.

In the case of `N#Cc1ccc(C(=O)Nc2ccc(CNc3cccc(Cl)c3)cn2)nc1` [Compound 498], the IC50 on human SCD5 came to 5200 nM; at human SCD1, 2700 nM.

Regarding `C=C(c1ccc(C(=O)Nc2ccc(Cc3cccc(Cl)c3)cn2)cn1)C(F)(F)F` [Compound 499], the IC50 at human SCD5 was found to be 820 nM; on human SCD1, 10000 nM.

With `N#Cc1cnc(C(=O)Nc2ccc(Cc3cccc(F)c3)cn2)nc1` [Compound 500], the results for the IC50 on human SCD5 and on human SCD1 were 10 nM and above 45000 nM, respectively.

On to `C#CCn1nc(C(=O)Nc2ccc(Cc3cccc(Cl)c3)cn2)ccc1=O` [Compound 501], for which the half-inhibitory concentration (IC50) at human SCD5 and on human SCD1 was 10 nM in each case.

`CC(=O)c1ccc(C(=O)Nc2ccc(Cc3cccc(Cl)c3)cn2)nc1` [Compound 502]: the IC50 on human SCD5 is 10 nM; on human SCD1 it was above 45000 nM.

Take `O=C(Nc1ccc(Cc2ccc(F)c(F)c2)cn1)c1cncc(CO)c1` [Compound 503]: the IC50 on human SCD5 was 10 nM; at human SCD1, 12 nM.

With `O=C(Nc1ccc(Cc2cccc(F)c2)cn1)c1ncc(F)cn1` [Compound 504], the figures for the 50% inhibitory concentration (IC50) at human SCD5 and at human SCD1 were 260 nM and 2800 nM, respectively.

With `O=C(Nc1ccc(Cc2cccc(F)c2)cn1)c1ccnc(C2CC2)n1` [Compound 506], the 50% inhibitory concentration (IC50) at human SCD5 was found to be 14 nM; at human SCD1 it was 1500 nM.

Take `CC(=O)c1ccc(C(=O)Nc2ccc(Cc3ccc(F)c(F)c3)cn2)nc1` [Compound 507]: the 50% inhibitory concentration (IC50) on human SCD5 is 1200 nM; on human SCD1, 980 nM.

Consider `Cn1c(C(=O)Nc2ccc(Cc3ccc(F)c(F)c3)cn2)coc1=O` [Compound 508], for which the IC50 on human SCD5 turned out to be 450 nM; on human SCD1, 2600 nM.

Turning to `Cn1c(C(=O)Nc2ccc(Cc3cc(F)cc(F)c3)cn2)coc1=O` [Compound 509], the IC50 came to 120 nM at human SCD5 and 430 nM on human SCD1.

Take `CC(O)c1ccc(C(=O)Nc2ccc(Cc3cccc(Cl)c3)cn2)nc1` (stereo not drawn) [Compound 510]: the 50% inhibitory concentration (IC50) amounted to 77 nM at human SCD5 and 100 nM at human SCD1.

Consider `CC(O)c1ccc(C(=O)Nc2ccc(Cc3ccc(F)c(F)c3)cn2)nc1` (stereo not drawn) [Compound 511], for which the 50% inhibitory concentration (IC50) on human SCD5 amounted to 190 nM; on human SCD1, 143 nM.

In the case of `CC(O)c1ccc(C(=O)Nc2ccc(Cc3cccc(Cl)c3)cn2)nn1` (stereo not drawn) [Compound 512], the IC50 on human SCD5 was 60 nM; at human SCD1, 49 nM.

On to `CC(O)c1ccc(C(=O)Nc2ccc(Cc3cc(F)cc(F)c3)cn2)cn1` (stereo not drawn) [Compound 513], for which the IC50 on human SCD5 worked out at 170 nM; at human SCD1 it was 770 nM.

With `CC(O)c1ccc(C(=O)Nc2ccc(Cc3ccc(F)c(F)c3)cn2)cn1` (stereo not drawn) [Compound 514], the IC50 on human SCD5 came out at 320 nM; at human SCD1 it was 2600 nM.

For the compound `Cn1ccc(C(=O)Nc2ccc(Cc3ccc(F)c(F)c3)cn2)cc1=O` [Compound 515], the concentration for half-maximal inhibition (IC50) came to 320 nM at human SCD5 and 5900 nM on human SCD1.

Turning to `CC(=O)c1ccc(C(=O)Nc2ccc(Cc3ccc(F)c(F)c3)cn2)nn1` [Compound 516], the concentration for half-maximal inhibition (IC50) on human SCD5 stood at 770 nM; on human SCD1 it was 960 nM.

As to `CC(=O)c1ccc(C(=O)Nc2ccc(Cc3cccc(Cl)c3)cn2)nn1` [Compound 517], the results for the IC50 on human SCD5 and at human SCD1 were 140 nM and 180 nM, respectively.

The values above are taken from US20230078764A1 (Yumanity Therapeutics, Inc., priority 2019, published 2023).
